Experimental findings from patent publication US20200397894A1, “COMPOSITIONS AND METHODS FOR TREATING CANCER” (University of Virginia Patent Foundation, priority 2016, published 2020) are described below.

The test system of data set [1] is PIG3V or PIG1 immortalized but not malignant melanocytic cell lines. Kind of data set: Proliferation of immortalized non-malignant melanocytic cell lines. It counts as cell-based. Conditions: Homo sapiens.
The subject of a further data set is Cal27 cells. Nature of the data set: Rereplication by propidium iodide staining and FACS (HNSCC). The class given is cell-based, human. Here is the method: (§1) The effect of pevonedistat treatment or CDT2, geminin, or EMI1 knockdown on the cell cycle (and induction of DNA rereplication) was assessed by flow cytometry with propidium iodide (PI) staining. […] Cells were collected, washed with PBS, and resuspended in ethanol (75%). Cells were subsequently treated with 20 μg of DNase-free RNase and stained with PI following the manufacturer's protocol. FACSCAN™ (Becton, Dickinson and Company, Franklin Lakes, N.J., United States of America) was used to analyze the samples and G0-G1, S, and G2-M fractions were segmented. Subsequent analysis using FLOWJO® (FLOWJO, LLC, Ashland, Oreg., United States of America) and ModFit (Verity Software House, Topsham, Me., United States of America) software was used to determine apoptotic and re-replicating fractions. Where indicated, Cal27 and FaDu cells were treated with pevonedistat for 48 hours and pulsed with BrdU (10 nM) for 1 hour in the dark prior to harvesting. Cells were washed with PBS and staining solution before fixation and permeabilization steps according to the manufacturer's protocol. Cells were subsequently stained with anti-BrdU antibody solution for 20 minutes at room temperature, washed, and stained with 7-AAD for 30 minutes at 4° C. Cells were resuspended in 1 ml of staining buffer and stored at 4° C. overnight before analysis. Sampled were analyzed on a FACSCAN™ (Becton, Dickinson and Company, Franklin Lakes, N.J., United States of America), and different fractions of BrdU positive cells were determined using FLOWJO® (FLOWJO, LLC, Ashland, Oreg., United States of America) and ModFit (Verity Software House, Topsham, Me., United States of America) software.

The subject of another data set is Cal27 xenografts. Kind of data set: HNSCC flank xenograft in nude mice. It counts as in vivo. Here is the method: The animal studies were conducted in accordance with the guidelines established by the University of Virginia Animal Care and Use Committee (ACUC). The effect of pevonedistat on tumor growth was tested in a flank HNSCC xenograft model. 4-5 weeks old Foxn1^nu athymic female nude immunodeficient mice (20-25 g body weight; Harlan Laboratories, now Envigo, Indianapolis, Ind., United States of America) were used. Pevonedistat was prepared in 10% DMSO containing PBS and filtered before use. 5×10^6 Cal27 cells (suspended in 200 μl sterile PBS) were inoculated subcutaneously in both flanks of nude mice (8 mice per group). When the tumor size reached 100 mm^3 (10 days post-inoculation), mice were randomized and were treated with pevonedistat (20 mg/kg), or with control vehicle (DMSO), administered intraperitoneally on a regimen of 5 days on/5 days off for 2 cycles (Tardat et al., 2010). Tumors from a third group of mice were exposed to 1Gy irradiation (IR) daily, 5 days/week for 3 weeks, and a fourth group of mice received both pevonedistat and IR treatments. Tumor irradiation was performed at the University of Virginia X-Ray facility, and only the tumors on both flanks were irradiated while the rest of animal body was shielded. For combination treatment, pevonedistat was given 2 hours prior to radiation exposure with the same schedule as for the individual treatments. Tumor growth was monitored every other day using an electronic caliper, for 3 weeks post-treatment and average of tumor volumes were calculated using the formula (L×W^2)/2). The results are represented as the mean tumor volumes±s.e.m, and p<0.05 was considered significant.

Another data set has as its system Cal27 or FaDu cells. Nature of the data set: FACS analysis of HNSCC cells (line not given). It counts as cell-based, human. The protocol: as §1, with “Cells were washed with PBS and staining solution before fixation and permeabilization steps according to the manufacturer's protocol. Cells were subsequently stained with anti-BrdU antibody solution for 20 minutes at room temperature, washed, and stained with 7-AAD for 30 minutes at 4° C. Cells were resuspended in 1 ml of staining buffer and stored at 4° C. overnight before analysis.” left out
On the technique in general: In flow cytometry, cells or beads pass a laser one at a time.

The test system of data set [2] is VMM39 cells. Kind of data set: Cell proliferation/viability MTT assay. The class given is cell-based. The conditions noted are these: Homo sapiens, 96 hours. The protocol:
(§2) Proliferation and viability of cultured cells was measured by CELLTITER96® Non-radioactive Cell Proliferation Assay (Promega Corporation; Madison, Wis., United States of America). Briefly, various wild type and mutant BRAF melanoma cells were seeded in 96 well plates and treated with pevonedistat, vemurafenib, or the combination pevonedistat and vemurafenib at various concentrations. Control cells were treated with DMSO. 96 hours following treatment, cells were stained with the dye solution according to the manufacturer's protocol. Absorbance was recorded at 570 nm and growth curves were established. To test the effect of transient exposure of melanoma cells to pevonedistat on rereplication and growth inhibition, washout experiments were conducted where melanoma cells or PIG3V melanocytes were treated with […] pevonedistat for different times (4, 8, 12, and 24 hours) before the drug was washed out by washing the cells twice with PBS, and adding drug-free fresh growth media to cells. Cells were counted every 24 hours using a COUNTESS™ Automated Cell Counter (INVITROGEN™, Carlsbad, Calif., United States of America), and harvested at the indicated times for PI staining and FACS analysis (cell cycle profile) or for immunoblotting.

In another data set the test system is VMM1 melanoma cells. Kind of data set: Cell proliferation/viability MTT assay. The conditions noted are these: Homo sapiens, 96 hours. The class given is cell-based. Here is the method:
as §2
For orientation: Tetrazolium assays rely on reduction of a dye to a coloured formazan, in cell work by metabolically active cells.

In another data set the test system is DM13 cells. Kind of data set: Cell proliferation/viability MTT assay. It counts as cell-based. The conditions noted are these: Homo sapiens, 96 hours. The protocol:
as §2

The subject of data set [3] is VMM39 cells. Nature of the data set: Clonogenic survival assay. The class given is cell-based, human. Here is the method:
(§3) Cell survival following CDT2 depletion or pevonedistat treatment was assessed by clonogenic survival assay, preformed in triplicates. 72 hours following transfection with si-GL2 or si-CDT2, cells were trypsinized, counted, and seeded in 60 mm dishes. For pevonedistat treatments, cells were counted and seeded in 60 mm dishes and treated 24 hours later with various doses of pevonedistat or with DMSO. Cells were cultured for two weeks and were subsequently washed in cold PBS, fixed in cold methanol for 10 minutes, and stained with crystal violet (0.5%) for 10 minutes. Plates were washed with water, dried, and pictures were captured using IMAGE LAB™ software (BioRad Laboratories, Inc., Hercules, Calif., United States of America). Quantification of colonies was performed using QUANTITY ONE® software (BioRad Laboratories, Inc., Hercules, Calif., United States of America). Results are represented as mean±s.e.m. of triplicates normalized to the corresponding DMSO-treated or si-GL2 transfected controls.

Another data set has as its system DM93 cells. Nature of the data set: Clonogenic survival assay. The class given is cell-based, human. The protocol: as §3

As usually defined, the IC50 is the concentration that inhibits the measured activity by half.

For `NS(=O)(=O)OCC1CC(n2ccc3c(NC4CCc5ccccc54)ncnc32)CC1O` [pevonedistat, ((1S,2S,4R)-4-(4-((1S)-2,3-Dihydro-H-inden-1-ylamino)-7H-pyrrolo(2,3-d)pyrimidin-7-yl)-2-hydroxycyclopentyl)methyl sulphamate], the IC50 was above 500 nM in [1], 35 nM with VMM39 cells [2], 330 nM with VMM1 melanoma cells and 40 nM in the data set with DM13 cells. In addition, the cells undergoing rereplication was 32.9% in the data set with Cal27 cells (Cal27, 40 nM pevonedistat 48 hours plus 2 Gy at the 24 hour time point) and 16.8% with Cal27 cells (Cal27, 40 nM pevonedistat for 48 hours). Also, the “cells exhibiting >4N DNA content” value in the data set on Cal27 cells (Cal27, 100 nM pevonedistat, PI staining) stood at 61%. For the same compound, the “growth of Cal27 xenografts” value in the data set with Cal27 xenografts (20 mg/kg IP, p=0.0211) is on record as “significantly suppressed”. The “growth of Cal27 xenografts, combined treatment with IR” value with Cal27 xenografts (20 mg/kg pevonedistat plus 1 Gy IR daily, p=2×10^−3 vs. control) is recorded as “more suppression than either treatment alone”. The tolerability result in the data set on Cal27 xenografts (nude mice, 20 mg/kg IP, 5 days on/5 days off, two cycles) was “well tolerated”. Also, in the data set on Cal27 xenografts (weighed once a week during the entire experiment), the “effect on mouse weight” value is on record as “no significant effect”. Besides, the “cells exhibiting sub-G1 DNA content” value with Cal27 or FaDu cells (72 hours post-treatment) was 5-10%. Besides, the “concentration at which rereplication was also observed” value in the data set on Cal27 or FaDu cells (as early as 24 hours following treatment) is given as 40 nM. Also, the “drug concentration inhibiting proliferation (clonogenic survival)” value is given as 50 nM with VMM39 cells [3] and 100 nM in the data set on DM93 cells.
